{"source": "patent US20250163104A1", "about": "“MACROCYCLIC IMMUNOMODULATORS” (priority 2021, published 2025)", "note": "Where a SMILES comes first, the peptide text is derived from it. Bridges are numbered along the chain shown (N, C = ends). [ ]: non-standard residue; d: D form. The star is where a group is joined. ξ: configuration not given here. Phe(4-COOH) = N[C@@H](Cc1ccc(C(=O)O)cc1)C(=O)O; Bip = N[C@@H](Cc1ccc(-c2ccccc2)cc1)C(=O)O; Phe(3-Me) = Cc1cccc(C[C@H](N)C(=O)O)c1; hArg = N=C(N)NCCCC[C@H](N)C(=O)O; Cha = N[C@@H](CC1CCCCC1)C(=O)O; Thr(3ξ) = CC(O)[C@H](N)C(=O)O; NMeNle = CCCC[C@H](NC)C(=O)O; Carboxymethyl = O=C(O)C*; Orn = NCCC[C@H](N)C(=O)O; Dab = NCC[C@H](N)C(=O)O; Dap = NC[C@H](N)C(=O)O"}
{"biological_target": "T1, human PD-1 / PD-L1-Ig binding on Jurkat cell line over-expressing human PD-1 (Jurkat-PD-1) (Homo sapiens, UniProt Q15116)", "T1 construct": "expressed in transfected cells; host or cells: Jurkat", "T1 sequence (Q15116 25-288)": "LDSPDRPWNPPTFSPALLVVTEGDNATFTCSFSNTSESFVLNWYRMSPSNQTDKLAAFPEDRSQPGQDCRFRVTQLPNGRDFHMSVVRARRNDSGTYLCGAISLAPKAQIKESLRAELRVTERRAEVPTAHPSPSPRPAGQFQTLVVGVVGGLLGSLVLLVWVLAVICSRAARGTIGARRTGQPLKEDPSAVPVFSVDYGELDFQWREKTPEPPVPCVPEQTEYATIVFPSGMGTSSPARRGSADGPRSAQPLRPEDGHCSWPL", "assay": "Jurkat-PD-1 Cell Binding High-Content Screening Assay (CBA)", "format": "cell-based", "settings": "Jurkat-PD-1 cells, PE-labeled PD-L1-Ig 20 nM final; read-out: Jurkat HPD1_PDL1 IC50", "method_in_brief": "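Cell-bound PE-labeled PD-L1-Ig (20 nM final, 1 h) measured by high-content imaging after fixation and Hoechst 33342 counterstain. Compound was applied first for 2 h at 37° C. to Jurkat cells over-expressing human PD-1 in DMEM with 10% FCS.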", "units": {"IC50": "nM"}}
{"smiles": "CC(C)C[C@H]1NC(=O)[C@H](CCCN)NC(=O)[C@H](C(C)C)NC(=O)[C@H](Cc2ccc(-c3ccccc3)cc2)NC(=O)[C@H](C(C)C)NC(=O)[C@H](Cc2c[nH]c3ccccc23)NC(=O)[C@H](CC(=O)O)NC(=O)[C@H](Cc2ccc(OCC(=O)O)cc2)NC(=O)[C@H](CCCCNC(=N)N)NC(=O)CSC[C@@H](C(=O)N[C@@H](CC(N)=O)C(N)=O)NC(=O)[C@H](C(C)O)NC(=O)[C@H](C(C)C)NC(=O)[C@H](CC2CCCCC2)NC(=O)[C@H](CCN)NC1=O", "note": "(stereo partly drawn) [Compound 2546] ({CH2CO}-[hArg]Y(Carboxymethyl)DWV[Bip]V[Orn][dL][Dab][Cha]V[Thr(3ξ)]CN-NH2; thioether N-14)", "IC50": 7.5}
{"smiles": "CC(C)C[C@H]1NC(=O)[C@H](CCCN)NC(=O)[C@H](C(C)C)NC(=O)[C@H](Cc2ccc(-c3ccccc3)cc2)NC(=O)[C@H](C(C)C)NC(=O)[C@H](Cc2c[nH]c3ccccc23)NC(=O)[C@H](CC(=O)O)NC(=O)[C@H](Cc2ccc(OCC(=O)O)cc2)NC(=O)[C@H](Cc2cnc[nH]2)NC(=O)CSC[C@@H](C(=O)N[C@@H](CC(N)=O)C(N)=O)NC(=O)[C@H](C(C)O)NC(=O)[C@H](C(C)C)NC(=O)[C@H](CC2CCCCC2)NC(=O)[C@H](CCN)NC1=O", "note": "(stereo partly drawn) [Compound 2548] ({CH2CO}-HY(Carboxymethyl)DWV[Bip]V[Orn][dL][Dab][Cha]V[Thr(3ξ)]CN-NH2; thioether N-14)", "IC50": 5.9}
{"smiles": "CC(C)C[C@H]1NC(=O)[C@H](CCCN)NC(=O)[C@H](C(C)C)NC(=O)[C@H](Cc2ccc(-c3ccccc3)cc2)NC(=O)[C@H](C(C)C)NC(=O)[C@H](Cc2c[nH]c3ccccc23)NC(=O)[C@H](CC(=O)O)NC(=O)[C@H](Cc2ccc(O)cc2)NC(=O)[C@H](C(C)O)NC(=O)CSC[C@@H](C(=O)N[C@@H](CC(N)=O)C(N)=O)NC(=O)[C@H](C(C)O)NC(=O)[C@H](C(C)C)NC(=O)[C@H](CC2CCCCC2)NC(=O)[C@H](CCN)NC1=O", "note": "(stereo partly drawn) [Compound 2549] ({CH2CO}-[Thr(3ξ)]YDWV[Bip]V[Orn][dL][Dab][Cha]V[Thr(3ξ)]CN-NH2; thioether N-14)", "IC50": 12.5}
{"smiles": "CC(C)C[C@H]1NC(=O)[C@H](CCCN)NC(=O)[C@H](C(C)C)NC(=O)[C@H](Cc2ccc(-c3ccccc3)cc2)NC(=O)[C@H](C(C)C)NC(=O)[C@H](Cc2c[nH]c3ccccc23)NC(=O)[C@H](CC(=O)O)NC(=O)[C@H](Cc2ccc(OCC(=O)O)cc2)NC(=O)[C@H](C(C)O)NC(=O)CSC[C@@H](C(=O)N[C@@H](CC(N)=O)C(N)=O)NC(=O)[C@H](CO)NC(=O)[C@H](C(C)C)NC(=O)[C@H](CC2CCCCC2)NC(=O)[C@H](CCN)NC1=O", "note": "(stereo partly drawn) [Compound 2550] ({CH2CO}-[Thr(3ξ)]Y(Carboxymethyl)DWV[Bip]V[Orn][dL][Dab][Cha]VSCN-NH2; thioether N-14)", "IC50": 4.9}
{"smiles": "CCCC[C@H]1C(=O)N[C@@H](Cc2ccc(C(=O)O)cc2)C(=O)N[C@@H](CC(=O)O)C(=O)N[C@@H](Cc2c[nH]c3ccccc23)C(=O)N[C@@H](C(C)C)C(=O)N[C@@H](Cc2ccc(-c3ccccc3)cc2)C(=O)N[C@@H](C(C)C)C(=O)N[C@@H](CCCN)C(=O)N[C@H](CC(C)C)C(=O)N[C@@H](CCN)C(=O)N[C@@H](CC2CCCCC2)C(=O)N[C@@H](C(C)C)C(=O)N[C@@H](C(C)O)C(=O)N[C@H](C(=O)N[C@@H](CC(N)=O)C(N)=O)CSCC(=O)N1C", "note": "(stereo partly drawn) [Compound 2551] ({CH2CO}-[NMeNle][Phe(4-COOH)]DWV[Bip]V[Orn][dL][Dab][Cha]V[Thr(3ξ)]CN-NH2; thioether N-14)", "IC50": 92.5}
{"smiles": "CC(C)C[C@H]1NC(=O)[C@H](CCCN)NC(=O)[C@H](C(C)O)NC(=O)[C@H](Cc2ccc(-c3ccccc3)cc2)NC(=O)[C@H](C(C)C)NC(=O)[C@H](Cc2c[nH]c3ccccc23)NC(=O)[C@H](CC(=O)O)NC(=O)[C@H](Cc2ccc(OCC(=O)O)cc2)NC(=O)[C@H](CN)NC(=O)CSC[C@@H](C(=O)N[C@@H](CC(N)=O)C(N)=O)NC(=O)[C@H](C(C)O)NC(=O)[C@H](C(C)C)NC(=O)[C@H](CC2CCCCC2)NC(=O)[C@H](Cc2c[nH]cn2)NC1=O", "note": "(stereo partly drawn) [Compound 2552] ({CH2CO}-[Dap]Y(Carboxymethyl)DWV[Bip][Thr(3ξ)][Orn][dL]H[Cha]V[Thr(3ξ)]CN-NH2; thioether N-14)", "IC50": 28.6}
{"smiles": "CCCC[C@H]1C(=O)N[C@@H](Cc2ccc(OCC(=O)O)cc2)C(=O)N[C@@H](CC(=O)O)C(=O)N[C@@H](Cc2cccc(C)c2)C(=O)N[C@@H](C(C)C)C(=O)N[C@@H](Cc2ccc(-c3ccccc3)cc2)C(=O)N[C@@H](C(C)O)C(=O)N[C@@H](CCCN)C(=O)N[C@H](CC(C)C)C(=O)N[C@@H](CCN)C(=O)N[C@@H](CC2CCCCC2)C(=O)N[C@@H](C(C)C)C(=O)N[C@@H](C(C)O)C(=O)N[C@H](C(=O)N[C@@H](CC(N)=O)C(N)=O)CSCC(=O)N1C", "note": "(stereo partly drawn) [Compound 2553] ({CH2CO}-[NMeNle]Y(Carboxymethyl)D[Phe(3-Me)]V[Bip][Thr(3ξ)][Orn][dL][Dab][Cha]V[Thr(3ξ)]CN-NH2; thioether N-14)", "IC50": 24.6}
{"smiles": "CC(C)[C@@H]1NC(=O)[C@H](Cc2c[nH]c3ccccc23)NC(=O)[C@H](CC(=O)O)NC(=O)[C@H](Cc2ccc(OCC(=O)O)cc2)NC(=O)[C@H](CCCCNC(=N)N)NC(=O)CSC[C@@H](C(=O)N[C@@H](CC(N)=O)C(N)=O)NC(=O)[C@H](CO)NC(=O)[C@H](C(C)C)NC(=O)[C@H](CC2CCCCC2)NC(=O)[C@H](CCN)NC(=O)[C@@H](C)NC(=O)[C@H](CCCN)NC(=O)[C@H](CC(N)=O)NC(=O)[C@H](Cc2ccc(-c3ccccc3)cc2)NC1=O", "note": "[Compound 2554] ({CH2CO}-[hArg]Y(Carboxymethyl)DWV[Bip]N[Orn][dA][Dab][Cha]VSCN-NH2; thioether N-14)", "IC50": 16.9}
{"smiles": "CC(C)C[C@H]1NC(=O)[C@H](CCCN)NC(=O)[C@H](C(C)C)NC(=O)[C@H](Cc2ccc(-c3ccccc3)cc2)NC(=O)[C@H](C(C)C)NC(=O)[C@H](Cc2c[nH]c3ccccc23)NC(=O)[C@H](CC(=O)O)NC(=O)[C@H](Cc2ccc(OCC(=O)O)cc2)NC(=O)[C@H](CCCCNC(=N)N)NC(=O)CSC[C@@H](C(=O)N[C@@H](C)C(N)=O)NC(=O)[C@H](C(C)O)NC(=O)[C@H](C(C)C)NC(=O)[C@H](CC2CCCCC2)NC(=O)[C@H](Cc2c[nH]cn2)NC1=O", "note": "(some centres unmarked) [Compound 2555]", "IC50": 19.5}
{"smiles": "CC(C)C[C@@H]1NC(=O)[C@H](Cc2c[nH]c3ccccc23)NC(=O)[C@H](CC(=O)O)NC(=O)[C@H](Cc2ccc(OCC(=O)O)cc2)NC(=O)[C@H](C(C)O)NC(=O)CSC[C@@H](C(=O)N[C@@H](CC(N)=O)C(N)=O)NC(=O)[C@H](CO)NC(=O)[C@H](C(C)C)NC(=O)[C@H](CC2CCCCC2)NC(=O)[C@H](CCN)NC(=O)[C@@H](CC(C)C)NC(=O)[C@H](CCCN)NC(=O)[C@H](CC(N)=O)NC(=O)[C@H](Cc2ccc(-c3ccccc3)cc2)NC1=O", "note": "(stereo partly drawn) [Compound 2557] ({CH2CO}-[Thr(3ξ)]Y(Carboxymethyl)DWL[Bip]N[Orn][dL][Dab][Cha]VSCN-NH2; thioether N-14)", "IC50": 68.6}
{"smiles": "CC(C)C[C@@H]1NC(=O)[C@H](Cc2c[nH]c3ccccc23)NC(=O)[C@H](CC(=O)O)NC(=O)[C@H](Cc2ccc(OCC(=O)O)cc2)NC(=O)[C@H](CCN)NC(=O)CSC[C@@H](C(=O)N[C@@H](CC(N)=O)C(N)=O)NC(=O)[C@H](CO)NC(=O)[C@H](C(C)C)NC(=O)[C@H](CC2CCCCC2)NC(=O)[C@H](CCN)NC(=O)[C@@H](CC(C)C)NC(=O)[C@H](CCCN)NC(=O)[C@H](C(C)O)NC(=O)[C@H](Cc2ccc(-c3ccccc3)cc2)NC1=O", "note": "(stereo partly drawn) [Compound 2558] ({CH2CO}-[Dab]Y(Carboxymethyl)DWL[Bip][Thr(3ξ)][Orn][dL][Dab][Cha]VSCN-NH2; thioether N-14)", "IC50": 14}
{"smiles": "CC(C)C[C@@H]1NC(=O)[C@H](Cc2c[nH]c3ccccc23)NC(=O)[C@H](CC(=O)O)NC(=O)[C@H](Cc2ccc(OCC(=O)O)cc2)NC(=O)[C@H](C(C)O)NC(=O)CSC[C@@H](C(=O)N[C@@H](CC(N)=O)C(N)=O)NC(=O)[C@H](CO)NC(=O)[C@H](C(C)C)NC(=O)[C@H](CC2CCCCC2)NC(=O)[C@H](CCN)NC(=O)[C@@H](CC(C)C)NC(=O)[C@H](CCCN)NC(=O)[C@H](C(C)O)NC(=O)[C@H](Cc2ccc(-c3ccccc3)cc2)NC1=O", "note": "(stereo partly drawn) [Compound 2559] ({CH2CO}-[Thr(3ξ)]Y(Carboxymethyl)DWL[Bip][Thr(3ξ)][Orn][dL][Dab][Cha]VSCN-NH2; thioether N-14)", "IC50": 24.8}
{"smiles": "CC(C)C[C@H]1NC(=O)[C@H](CCCN)NC(=O)[C@H](Cc2cnc[nH]2)NC(=O)[C@H](Cc2ccc(-c3ccccc3)cc2)NC(=O)[C@H](C(C)C)NC(=O)[C@H](Cc2c[nH]c3ccccc23)NC(=O)[C@H](CC(=O)O)NC(=O)[C@H](Cc2ccc(OCC(=O)O)cc2)NC(=O)[C@H](Cc2ccccc2)NC(=O)CSC[C@@H](C(=O)N[C@@H](CC(N)=O)C(N)=O)NC(=O)[C@H](CO)NC(=O)[C@H](C(C)C)NC(=O)[C@H](CC2CCCCC2)NC(=O)[C@H](CCN)NC1=O", "note": "[Compound 2560] ({CH2CO}-FY(Carboxymethyl)DWV[Bip]H[Orn][dL][Dab][Cha]VSCN-NH2; thioether N-14)", "IC50": 9.4}
{"smiles": "CC(C)C[C@H]1NC(=O)[C@H](CCCN)NC(=O)[C@H](Cc2cnc[nH]2)NC(=O)[C@H](Cc2ccc(-c3ccccc3)cc2)NC(=O)[C@H](C(C)C)NC(=O)[C@H](Cc2c[nH]c3ccccc23)NC(=O)[C@H](CC(=O)O)NC(=O)[C@H](Cc2ccc(OCC(=O)O)cc2)NC(=O)[C@H](C(C)O)NC(=O)CSC[C@@H](C(=O)N[C@@H](CC(N)=O)C(N)=O)NC(=O)[C@H](CO)NC(=O)[C@H](C(C)C)NC(=O)[C@H](CC2CCCCC2)NC(=O)[C@H](CCN)NC1=O", "note": "(stereo partly drawn) [Compound 2561] ({CH2CO}-[Thr(3ξ)]Y(Carboxymethyl)DWV[Bip]H[Orn][dL][Dab][Cha]VSCN-NH2; thioether N-14)", "IC50": 8.2}
